Data from patent US8178506B2, “Oligomeric compounds and compositions for use in modulation of small non-coding RNAs” (Regulus Therapeutics Inc., priority 2003, dated 2012).
In the oligonucleotide strings, read from the 5' end, every base follows the letter of its sugar. An asterisk marks phosphorothioate; unmarked linkages are phosphodiester. Other units and linkages are bracketed, terminal groups are in braces. A string of capitals states the bases alone. e = 2'-O-(2-methoxyethyl) (MOE); [5mC] = 5-methylcytosine

How the values were obtained:
[1] = system: BJ, B16-F10, T47D, T47Dp53 and HeLa cells; assay: Cell cycle assay (propidium iodide flow cytometry), cell line panel; type: cell-based; conditions: 150 nM oligomeric compound, 4.5 μg/ml LIPOFECTIN, after 72 hours, propidium iodide flow cytometry
IL-12 mRNA = IL-12 mRNA in LPS-activated primary murine macrophages; type: cell-based, mouse; conditions: normalized to LPS-treated cells without oligomeric compound; for IL-12 mRNA expression, −IFN % UTC: 300 nM oligomeric compound and LPS, no IFN-gamma pretreatment, single experiment; for IL-12 mRNA expression, +IFN % UTC: 300 nM oligomeric compound, stimulation with IFN-gamma and LPS, average of 2 experiments

Substance	G1 (percentage of cells in phase of the cell cycle) [1]	G2/M (percentage of cells in phase of the cell cycle) [1]	S (percentage of cells in phase of the cell cycle) [1]	SubG1 (percentage of cells in phase of the cell cycle) [1]	aneuploid (percentage of cells) [1]	IL-12 mRNA expression, −IFN % UTC (IL-12 mRNA)	IL-12 mRNA expression, +IFN % UTC (IL-12 mRNA)
327901 (antisense eT*eG*eA*eG*e[5mC]*eT*eA*e[5mC]*eA*eG*eT*eG*e[5mC]*eT*eT*e[5mC]*eA*eT*e[5mC]*eT*e[5mC]*eA) [compound 327901]	34.7%	20.3%	44.9%	12%	13.6%	225 % UTC	9 % UTC
327889 (antisense eG*eT*eG*eG*eT*eA*eA*eT*e[5mC]*e[5mC]*e[5mC]*eT*eG*eG*e[5mC]*eA*eA*eT*eG*eT*eG*eA*eT) [compound 327889]	53.1%	14.4%	32.5%	8.2%	10.5%	153 % UTC	10 % UTC
327893 (antisense eA*eA*e[5mC]*e[5mC]*eA*e[5mC]*eA*e[5mC]*eA*eA*e[5mC]*e[5mC]*eT*eA*e[5mC]*eT*eA*e[5mC]*e[5mC]*eT*e[5mC]*eA) [compound 327893]	–	–	–	–	–	117 % UTC	52 % UTC
328133 (eT*eG*eA*eA*eG*eG*eT*eT*e[5mC]*eG*eG*eA*eG*eA*eT*eA*eG*eG*e[5mC]*eT*eA; anti-miR) [compound 328133]	–	–	–	–	–	165 % UTC	62 % UTC
327876 (antisense eA*eA*e[5mC]*eA*e[5mC]*eT*eG*eA*eT*eT*eT*e[5mC]*eA*eA*eA*eT*eG*eG*eT*eG*e[5mC]*eT*eA) [compound 327876]	–	–	–	–	–	194 % UTC	9 % UTC
328110 (antisense eG*eA*eT*eA*eA*eA*eG*e[5mC]*e[5mC]*eA*eA*eT*eA*eA*eA*e[5mC]*eT*eG*eT*e[5mC]*eA) [compound 328110]	–	–	–	–	–	221 % UTC	8 % UTC
327956 (antisense e[5mC]*eA*e[5mC]*eA*eG*eT*eT*eG*e[5mC]*e[5mC]*eA*eG*e[5mC]*eT*eG*eA*eG*eA*eT*eT*eA) [compound 327956]	–	–	–	–	–	212 % UTC	59 % UTC
327890 (antisense eA*eG*e[5mC]*eA*e[5mC]*eA*eA*eA*e[5mC]*eT*eA*e[5mC]*eT*eA*e[5mC]*e[5mC]*eT*e[5mC]*eA) [compound 327890]	–	–	–	–	–	183 % UTC	94 % UTC
341800 (antisense AAGCCCAAAAGGAGAAUUCUUUG; all 2'-MOE, all phosphorothioate, methylation of C and T or U not given here) [compound 341800]	–	–	–	–	–	180 % UTC	100 % UTC
328129 (antisense eA*eG*e[5mC]*e[5mC]*eT*e[5mC]*e[5mC]*eT*eT*e[5mC]*eT*eT*e[5mC]*eT*e[5mC]*eG*eT*eA*e[5mC]*eT*eA) [compound 328129]	–	–	–	–	–	87 % UTC	10 % UTC
327925 (antisense eT*eA*eG*e[5mC]*eT*eG*eG*eT*eT*eG*eA*eA*eG*eG*eG*eG*eA*e[5mC]*e[5mC]*eA*eA) [compound 327925]	–	–	–	–	–	302 % UTC	60 % UTC
328105 (antisense e[5mC]*e[5mC]*eT*e[5mC]*eA*eA*eT*eT*eA*eT*eT*eG*eG*eA*eA*eA*eT*e[5mC]*eA*e[5mC]*eA) [compound 328105]	–	–	–	–	–	108 % UTC	57 % UTC
342673 (antisense eA*eG*eA*e[5mC]*eT*eA*eG*e[5mC]*eG*eG*eT*eA*eT*e[5mC]*eT*eT*eT*eA*eT*e[5mC]*e[5mC]*e[5mC]) [compound 342673]	–	–	–	–	–	91 % UTC	–
327919 (antisense eG*eA*eA*eA*e[5mC]*e[5mC]*e[5mC]*eA*eG*e[5mC]*eA*eG*eA*e[5mC]*eA*eA*eT*eG*eT*eA*eG*e[5mC]*eT) [compound 327919]	54.3%	15.4%	30.3%	10.8%	16%	179 % UTC	37 % UTC
328123 (antisense eT*eT*eA*e[5mC]*eA*eG*eG*eT*eG*e[5mC]*eT*eG*e[5mC]*eA*eA*e[5mC]*eT*eG*eG*eA*eA) [compound 328123]	–	–	–	–	–	176 % UTC	14 % UTC
327887 (antisense eG*e[5mC]*eG*eA*e[5mC]*e[5mC]*eA*eT*eG*eG*e[5mC]*eT*eG*eT*eA*eG*eA*e[5mC]*eT*eG*eT*eT*eA) [compound 327887]	–	–	–	–	–	287 % UTC	33 % UTC
327912 (antisense eA*eA*e[5mC]*eT*eA*eT*eA*e[5mC]*eA*eA*eT*e[5mC]*eT*eA*e[5mC]*eT*eA*e[5mC]*e[5mC]*eT*e[5mC]*eA) [compound 327912]	–	–	–	–	–	206 % UTC	39 % UTC
327913 (antisense eA*eA*e[5mC]*e[5mC]*eG*eA*eT*eT*eT*e[5mC]*eA*eA*eA*eT*eG*eG*eT*eG*e[5mC]*eT*eA*eG) [compound 327913]	–	–	–	–	–	276 % UTC	73 % UTC
328138 (eG*eA*eG*e[5mC]*eT*eG*e[5mC]*eT*e[5mC]*eA*eG*e[5mC]*eT*eG*eG*e[5mC]*e[5mC]*eA*eT*e[5mC]*eA; anti-miR) [compound 328138]	–	–	–	–	–	277 % UTC	31 % UTC
327917 (antisense eT*e[5mC]*eA*eA*e[5mC]*eA*eT*e[5mC]*eA*eG*eT*e[5mC]*eT*eG*eA*eT*eA*eA*eG*e[5mC]*eT*eA) [compound 327917]	–	–	–	–	–	225 % UTC	35 % UTC
328137 (eG*eT*eA*eA*eG*e[5mC]*eG*e[5mC]*eA*eG*e[5mC]*eT*e[5mC]*e[5mC]*eA*e[5mC]*eA*eG*eG*e[5mC]*eT; anti-miR) [compound 328137]	–	–	–	–	–	213 % UTC	12 % UTC
327903 (antisense eA*eA*e[5mC]*eT*eA*eT*eA*e[5mC]*eA*eA*e[5mC]*e[5mC]*eT*eA*e[5mC]*eT*eA*e[5mC]*e[5mC]*eT*e[5mC]*eA) [compound 327903]	53.7%	15.4%	30.9%	11%	13.4%	200 % UTC	23 % UTC
327928 (antisense eA*eA*e[5mC]*e[5mC]*eG*eA*eT*eT*eT*e[5mC]*eA*eG*eA*eT*eG*eG*eT*eG*e[5mC]*eT*eA*eG) [compound 327928]	56%	16%	27.9%	6.6%	15.9%	201 % UTC	61 % UTC
